Measurements: patent publication US6452032B1, “Organosilyl compounds having nuclear hormone receptor modulating activity” (Allergan Sales, LLC, priority 1999, dated 2002)
Like-named read-outs stand apart in the source and are kept apart here.

What was measured:
[1] = target: T1, RARγ (Homo sapiens, UniProt P13631); test: Competition binding assay, radiolabeled all-trans-retinoic acid, RARγ
T1 sequence (P13631 1-454): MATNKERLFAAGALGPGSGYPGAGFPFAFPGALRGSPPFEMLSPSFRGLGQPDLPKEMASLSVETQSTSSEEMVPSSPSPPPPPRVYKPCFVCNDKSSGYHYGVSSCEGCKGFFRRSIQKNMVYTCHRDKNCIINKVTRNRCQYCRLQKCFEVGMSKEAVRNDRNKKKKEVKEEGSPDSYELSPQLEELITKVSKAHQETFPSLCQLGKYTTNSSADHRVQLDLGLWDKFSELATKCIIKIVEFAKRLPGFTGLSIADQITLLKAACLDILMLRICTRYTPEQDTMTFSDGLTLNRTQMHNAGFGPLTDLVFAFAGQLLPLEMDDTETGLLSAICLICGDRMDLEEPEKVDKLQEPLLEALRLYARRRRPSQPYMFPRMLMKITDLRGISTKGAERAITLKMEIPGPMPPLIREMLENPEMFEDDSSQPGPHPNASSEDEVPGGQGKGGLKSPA
Experimental: (§1) Binding assays were performed using a classic competition assay format in which cloned receptor RAR mand RXR molecules were first loaded with either radiolabeled all-trans-retinoic acid (RAR) or radiolabeled 9-cis retinoic acid (RXR), and then the amount of radioactivity liberated with increasing concentration of test compound was measured.
(§2) These compounds are designated AGN 192192, AGN 192337, AGN 192294, AGN 192295, and AGN 192452, respectively. EC50 designates the concentration of the tested compound which was able to give a 50% maximal transcription of the reporter gene; KD50 indicates the concentration of the tested compound at which 50% of the compound molecules are bound to the receptor. NT indicates those points that were not tested in the particular experiment.

[2] = target: T2, RARα (Homo sapiens, UniProt P10276); test: Competition binding assay, radiolabeled all-trans-retinoic acid, RARα
T2 sequence (P10276 1-462): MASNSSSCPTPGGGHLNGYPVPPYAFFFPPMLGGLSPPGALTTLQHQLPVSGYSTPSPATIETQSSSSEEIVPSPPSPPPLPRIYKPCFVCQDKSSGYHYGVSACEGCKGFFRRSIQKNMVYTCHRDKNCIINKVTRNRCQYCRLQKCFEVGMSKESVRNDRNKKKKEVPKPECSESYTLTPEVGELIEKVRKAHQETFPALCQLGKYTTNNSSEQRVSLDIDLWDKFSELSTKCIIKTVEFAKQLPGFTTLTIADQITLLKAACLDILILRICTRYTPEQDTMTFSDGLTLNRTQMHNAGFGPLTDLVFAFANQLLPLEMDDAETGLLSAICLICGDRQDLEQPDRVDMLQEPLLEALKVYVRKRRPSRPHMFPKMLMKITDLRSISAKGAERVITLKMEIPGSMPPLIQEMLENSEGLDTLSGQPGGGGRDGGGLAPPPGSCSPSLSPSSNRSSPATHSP
Experimental: as §1, §2

[3] = target: T3, RARβ (Homo sapiens, UniProt P10826); test: Competition binding assay, radiolabeled all-trans-retinoic acid, RARβ
T3 construct: expressed in transfected cells
T3 sequence (P10826 1-455): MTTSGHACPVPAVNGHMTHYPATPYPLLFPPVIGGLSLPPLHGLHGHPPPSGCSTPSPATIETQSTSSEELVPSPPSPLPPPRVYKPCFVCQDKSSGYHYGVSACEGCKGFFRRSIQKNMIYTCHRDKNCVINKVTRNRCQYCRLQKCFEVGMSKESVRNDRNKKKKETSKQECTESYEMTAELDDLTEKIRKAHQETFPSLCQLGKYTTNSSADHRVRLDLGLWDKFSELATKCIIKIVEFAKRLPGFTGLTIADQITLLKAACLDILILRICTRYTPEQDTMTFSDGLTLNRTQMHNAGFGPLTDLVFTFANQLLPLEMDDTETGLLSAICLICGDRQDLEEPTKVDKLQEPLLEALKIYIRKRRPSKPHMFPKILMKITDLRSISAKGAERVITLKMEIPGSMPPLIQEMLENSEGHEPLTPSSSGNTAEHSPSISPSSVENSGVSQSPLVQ
Experimental: as §1, §2

[4] = target: T3, RARβ; test: Transactivation assay, luciferase reporter, full length RARβ; type: cell-based
Experimental: (§3) Retinoic acid receptor transactivation activity and binding efficiencies were determined essentially as described in U.S. Pat. Nos.: 5,298,429 and 5,071,773, incorporated by reference herein. Transactivation assays employed expression plasmids encoding the full length receptors RARα, RARβ, RARγ, RXRα, RXRβ, and RXRγ. Reporter plasmids contained the herpes virus thymidine kinase promoter and the appropriate retinoid acid receptor response element (RAREs) or retinoid X receptor response element (RXREs) positioned upstream of an open coding region encoding firefly luciferase.
as §2

[5] = target: T1, RARγ; test: Transactivation assay, luciferase reporter, full length RARγ; type: cell-based
Experimental: as §3, §2

[6] = target: T2, RARα; test: Transactivation assay, luciferase reporter, full length RARα; type: cell-based; conditions: concentration giving 50% maximal transcription of the reporter gene; read-out: Trans (EC50) RARα
Experimental: as §3, §2

[7] = target: T4, RXRα (Homo sapiens, UniProt P19793); test: Transactivation assay, luciferase reporter, full length RXRα; type: cell-based; conditions: concentration giving 50% maximal transcription of the reporter gene; read-out: Trans (EC50) RXRα
T4 construct: encoding the full length receptors RARα, RARβ, RARγ, RXRα, RXRβ, and RXRγ; expressed in transfected cells
T4 sequence (P19793 1-462): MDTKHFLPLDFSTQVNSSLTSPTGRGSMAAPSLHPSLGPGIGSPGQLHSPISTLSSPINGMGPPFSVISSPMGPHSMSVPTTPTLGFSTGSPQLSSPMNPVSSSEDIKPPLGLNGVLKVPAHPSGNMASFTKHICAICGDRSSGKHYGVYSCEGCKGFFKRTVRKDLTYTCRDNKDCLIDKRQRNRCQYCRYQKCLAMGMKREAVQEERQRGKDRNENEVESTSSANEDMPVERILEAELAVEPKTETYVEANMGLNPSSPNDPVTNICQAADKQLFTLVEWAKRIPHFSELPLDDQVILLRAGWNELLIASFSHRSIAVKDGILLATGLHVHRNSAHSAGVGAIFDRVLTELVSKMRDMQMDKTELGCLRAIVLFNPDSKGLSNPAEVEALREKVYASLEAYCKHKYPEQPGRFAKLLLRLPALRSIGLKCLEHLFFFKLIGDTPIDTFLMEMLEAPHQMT
Experimental: as §3, §2

[8] = target: T4, RXRα; test: Competition binding assay, radiolabeled 9-cis retinoic acid, RXRα; conditions: competition with radiolabeled 9-cis retinoic acid; read-out: Bind (KD50) RXRα
Experimental: as §1, §2

[9] = target: T5, RXRβ (Homo sapiens, UniProt P28702); test: Competition binding assay, radiolabeled 9-cis retinoic acid, RXRβ; conditions: competition with radiolabeled 9-cis retinoic acid; read-out: Bind (KD50) RXRβ
T5 construct: encoding the full length receptors RARα, RARβ, RARγ, RXRα, RXRβ, and RXRγ; expressed in transfected cells
T5 sequence (P28702 1-533): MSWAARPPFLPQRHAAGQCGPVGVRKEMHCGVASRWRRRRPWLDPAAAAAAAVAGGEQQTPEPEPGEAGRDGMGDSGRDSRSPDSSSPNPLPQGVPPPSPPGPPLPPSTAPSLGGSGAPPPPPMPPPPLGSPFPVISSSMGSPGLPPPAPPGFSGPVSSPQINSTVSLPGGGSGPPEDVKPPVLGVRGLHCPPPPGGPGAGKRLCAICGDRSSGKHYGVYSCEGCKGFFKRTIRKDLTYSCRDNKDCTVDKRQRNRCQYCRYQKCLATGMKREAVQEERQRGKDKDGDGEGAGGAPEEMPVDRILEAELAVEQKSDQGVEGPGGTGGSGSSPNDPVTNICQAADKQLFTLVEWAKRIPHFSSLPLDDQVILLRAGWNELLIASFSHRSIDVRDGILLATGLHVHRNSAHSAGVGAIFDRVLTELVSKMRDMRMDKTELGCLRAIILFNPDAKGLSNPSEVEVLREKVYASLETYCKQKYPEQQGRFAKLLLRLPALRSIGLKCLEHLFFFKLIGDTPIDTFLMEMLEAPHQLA
Experimental: as §1, §2

[10] = target: T6, RXRγ (Homo sapiens, UniProt P48443); test: Transactivation assay, luciferase reporter, full length RXRγ; type: cell-based; conditions: concentration giving 50% maximal transcription of the reporter gene; read-out: Trans (EC50) RXRγ
T6 construct: encoding the full length receptors RARα, RARβ, RARγ, RXRα, RXRβ, and RXRγ; expressed in transfected cells
T6 sequence (P48443 1-463): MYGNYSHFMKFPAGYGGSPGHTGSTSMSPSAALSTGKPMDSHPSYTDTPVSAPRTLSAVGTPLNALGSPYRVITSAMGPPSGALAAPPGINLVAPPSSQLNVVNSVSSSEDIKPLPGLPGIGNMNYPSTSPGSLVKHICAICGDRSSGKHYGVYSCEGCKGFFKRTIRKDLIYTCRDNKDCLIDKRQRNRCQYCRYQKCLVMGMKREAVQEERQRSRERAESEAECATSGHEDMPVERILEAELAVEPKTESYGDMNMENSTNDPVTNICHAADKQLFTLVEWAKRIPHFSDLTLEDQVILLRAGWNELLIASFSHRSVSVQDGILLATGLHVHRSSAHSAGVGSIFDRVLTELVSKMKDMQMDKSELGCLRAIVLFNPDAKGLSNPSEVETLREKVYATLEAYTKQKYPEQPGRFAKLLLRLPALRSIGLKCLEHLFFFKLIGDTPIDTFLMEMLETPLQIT
Experimental: as §3, §2

[11] = target: T6, RXRγ; test: Competition binding assay, radiolabeled 9-cis retinoic acid, RXRγ; conditions: competition with radiolabeled 9-cis retinoic acid; read-out: Bind (KD50) RXRγ
Experimental: as §1, §2

[12] = target: T5, RXRβ; test: Transactivation assay, luciferase reporter, full length RXRβ; type: cell-based; conditions: concentration giving 50% maximal transcription of the reporter gene; read-out: Trans (EC50) RXRβ
Experimental: as §3, §2

[13] = competition with radiolabeled all-trans-retinoic acid, read-out: Bind (KD50) RARγ
[14] = competition with radiolabeled all-trans-retinoic acid, read-out: Bind (KD50) RARα
[15] = competition with radiolabeled all-trans-retinoic acid, read-out: Bind (KD50) RARβ
[16] = concentration giving 50% maximal transcription of the reporter gene, read-out: Trans (EC50) RARβ

| Structure (SMILES) | Kd [1, 13] [µM] | Kd [2, 14] [nM] | EC50 [6] [nM] | Kd [3, 15] [nM] | EC50 [4, 16] [nM] | EC50 [7] [nM] | EC50 [10] [nM] | further results |
| --- | --- | --- | --- | --- | --- | --- | --- | --- |
| CC1(C)CCC(C)(C)c2cc(/C(=C/c3ccc(C(=O)C(=O)O)cc3)[Si](C)(C)C)ccc21 [Compound 192337] |  |  |  |  |  |  |  | Kd [1]: 5.84 µM; Kd [2]: 2280 nM; Kd [3]: 2430 nM; EC50 [4]: 260 nM; EC50 [5]: 1500 nM |
| Cc1cc2c(cc1/C(=C/c1ccc(C(=O)C(=O)O)cc1)[Si](C)(C)C)C(C)(C)CCC2(C)C [Compound 192192] | 2.02 | 2640 | 550 | 699 | 88 | 990 | 960 | Kd [8]: > 1000 nM; Kd [9]: > 1000 nM; Kd [11]: > 1000 nM; EC50 [12]: 780 nM |
| Cc1cc2c(cc1/C(=C/c1ccc(C(=O)O)s1)[Si](C)(C)C)C(C)(C)CCC2(C)C [Compound 192294] | 8.94 |  |  | 8000 |  |  |  |  |

Continued, in another order:

| Kd [1, 13] [µM] | Kd [2, 14] [nM] | EC50 [6] [nM] | Kd [3, 15] [nM] | EC50 [4, 16] [nM] | EC50 [7] [nM] | EC50 [10] [nM] | Structure (SMILES) | further results |
| --- | --- | --- | --- | --- | --- | --- | --- | --- |
| 1.55 | 1300 | 350 | 499 | 290 |  |  | CC1(C)CCC(C)(C)c2cc(/C(=C/c3ccc(C(=O)O)s3)[Si](C)(C)C)ccc21 [Compound 192295] | EC50 ([5]; concentration giving 50% maximal transcription of the reporter gene, read-out: Trans (EC50) RARγ): 330 nM |
| 4.52 |  |  | 3300 |  | 3100 | 2900 | CC1(C)CC(C)(C)c2cc(/C(=C/c3ccc(C(=O)C(=O)O)cc3)[Si](C)(C)C)ccc2O1 [Compound 192452] |  |
